Results from article PMC11705230, “Discovery and Synthetic Applications of a NAD(P)H-Dependent Reductive Aminase from Rhodococcus erythropolis” (ACS Catalysis, 2024).

Biological target: T1, RytRedAm (Rhodococcus erythropolis, UniProt Z9GXG8TLZ1)
T1 construct: recombinant, N-terminal His-tag in pET-28a(+), E. coli BL21(DE3); Ni-NTA purified; homodimer; printed residues R35, I69, T90, D166, Y235
T1 sequence (Z9GXG8TLZ1 1-291): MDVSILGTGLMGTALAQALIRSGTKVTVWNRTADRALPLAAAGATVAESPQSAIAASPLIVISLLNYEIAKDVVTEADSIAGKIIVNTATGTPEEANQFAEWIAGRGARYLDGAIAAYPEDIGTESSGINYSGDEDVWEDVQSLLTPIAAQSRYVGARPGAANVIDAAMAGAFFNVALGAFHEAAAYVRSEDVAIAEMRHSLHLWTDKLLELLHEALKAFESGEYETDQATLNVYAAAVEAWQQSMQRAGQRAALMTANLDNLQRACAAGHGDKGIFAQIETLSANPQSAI
Test: X-ray crystallography
Type: binding
Conditions: cocrystallized with NADP+, nicotinamide ring and ribose density absent; cofactor site; pH 7.0

Q: For `Nc1ncnc2c1ncn2[C@@H]1O[C@H](COP(=O)(O)OP(=O)(O)O)[C@@H](O)[C@H]1OP(=O)(O)O` [ADP-2RP], which X-ray crystallography is on record?
A: crystals obtained with the latter gave an ADP-2′-ribose phosphate (ADP-2RP) complex
